Values of other authors as cited in patent US8440668B2, “Beta-amino heterocyclic dipeptidyl peptidase inhibitors for the treatment of type 2 diabetes” (Merck Sharp & Dohme Corp, priority 2001, dated 2013).

Assays:
[1] = tested on: rats; details: Transplantation 63, 1495-1500 (1997)
[2] = tested on: mouse; details: cyclophosphamide-induced neutropenia, WO 99/56753
[3] = target: T1, DP-IV (Homo sapiens, UniProt P27487)
T1 construct: GRF is rapidly degraded in plasma to GRF[3-44]; from tissue
T1 sequence (P27487 39-766 limits assumed): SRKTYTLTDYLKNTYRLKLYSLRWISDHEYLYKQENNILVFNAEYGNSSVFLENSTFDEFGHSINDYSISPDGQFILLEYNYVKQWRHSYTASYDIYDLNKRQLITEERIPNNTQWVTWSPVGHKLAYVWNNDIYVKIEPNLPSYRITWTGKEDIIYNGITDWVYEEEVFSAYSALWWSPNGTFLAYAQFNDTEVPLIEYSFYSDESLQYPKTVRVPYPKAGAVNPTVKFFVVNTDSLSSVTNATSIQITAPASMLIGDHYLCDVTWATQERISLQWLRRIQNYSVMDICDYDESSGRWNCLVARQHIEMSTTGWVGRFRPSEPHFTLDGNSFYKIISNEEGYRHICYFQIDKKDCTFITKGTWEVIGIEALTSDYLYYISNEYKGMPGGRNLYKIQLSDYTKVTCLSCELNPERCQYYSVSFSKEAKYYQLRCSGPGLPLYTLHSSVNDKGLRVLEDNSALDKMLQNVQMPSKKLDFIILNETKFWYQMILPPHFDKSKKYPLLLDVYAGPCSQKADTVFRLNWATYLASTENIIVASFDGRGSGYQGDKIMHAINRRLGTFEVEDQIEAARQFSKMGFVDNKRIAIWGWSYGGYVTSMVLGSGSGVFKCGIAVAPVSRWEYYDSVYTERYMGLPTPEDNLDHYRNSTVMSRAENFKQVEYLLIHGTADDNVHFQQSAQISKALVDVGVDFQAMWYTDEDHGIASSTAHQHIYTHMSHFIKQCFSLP

Compound: CC(C)N1CCC(c2ccccc2)(c2ccccc2)CC1 [Prodipine, Pro-Pro-diphenyl-phosphonate]
- cardiac allograft survival [1]: double cardiac allograft survival in rats from day 7 to day 14

Compound: CC(C)[C@H](N)C(=O)N1CCC[C@H]1B(O)O [Val-Boro-Pro]
- hematopoiesis [2]: stimulated hematopoiesis

Compound: diprotin A
- degradation of GRF in plasma to GRF[3-44] [3]: prevented
